Data reported in paper PMC12410356 (International Journal for Parasitology: Drugs and Drug …, 2025).

Experiments:
[1] = tested on: E. multilocularis metacestode vesicles; test: Phosphoglucose isomerase (PGI) release assay (damage-marker release) on metacestode vesicles; assay type: cell-based, Echinococcus multilocularis; conditions: overview screen, 10 μM, singlets, relative to 0.1 % Triton X-100, DMSO subtracted; for PGI d5 (relative PGI release): 5 days; for PGI d12 (relative PGI release): 12 days
[2] = tested on: E. multilocularis metacestode vesicles; test: Metacestode vesicle viability assay (ATP, CellTiter-Glo); assay type: cell-based, Echinococcus multilocularis
Procedure: Viability was assessed after 12 days using the same metacestode vesicles as for the PGI release assay. Triton X-100 was added to each well to a final concentration of 0.1 %. Subsequently the metacestode vesicles were broken mechanically and 50 μL of the supernatant was mixed with 50 μL of CellTiter-Glo® buffer (Promega, Dübendorf, Switzerland). Measurements were performed on a HIDEX Sense microplate reader.

[3] = overview screen, 10 μM, singlets, 12 days, relative to DMSO control

Compound | PGI d5 (relative PGI release) [1] [%] | PGI d12 (relative PGI release) [1] [%] | Viability d12 (relative viability) [2, 3] [%] | Viability d12 (relative viability) ([2]; 10 µM) [%]
CC[C@@]1(O)C(=O)OCc2c1cc1n(c2=O)Cc2cc3c(CN(C)C)c(O)ccc3nc2-1.Cl [MMV1633678] | 0.263 | -2.724 | 288.666 | –
O=c1[nH]cnc2c1ncn2[C@H]1CC[C@@H](CO)O1 [MMV637306] | -0.8027 | 5.98 | – | 229.844
C[C@@H](O)[C@H](N)C(=O)NS(=O)(=O)c1cccc(-c2ccc3[nH]ncc3c2)c1.Cl.Cl [MMV1582494] | -2.197 | -25.2892 | 90.2603 | –
O=[N+]([O-])/C(Br)=C/c1ccc(Br)o1 [MMV1645051] | 1.139 | -20.9736 | 16.4489 | –
c1ccc(-c2nnc3c4ccccc4c(N4CCNCC4)nn23)cc1 [MMV1581551] | -2.787 | -25.7664 | 63.6248 | –
COc1cc(C(C(=O)NC2CCCCC2)N(C(=O)Cc2c[nH]c3ccccc23)c2ccc(C(C)C)cc2)cc(OC)c1OC (stereo not drawn) [MMV1593544] | 0.03783 | 0.3627 | 100.386 | –
CC(=O)Nc1cc(NS(=O)(=O)c2ccc(Cl)cc2)cc2c(Cl)n[nH]c12 [MMV1579779] | 1.247 | 30.3469 | 88.2086 | –
COc1ccc(SC(=O)N[C@H](CCC(=O)O)C(=O)O)cc1 [MMV1580846] | -0.9041 | -2.09 | 126.077 | –
O=C(Nc1ccccc1C(=O)O)c1cccc(Oc2ccccc2)c1 [MMV1579784] | 0.07516 | 11.2094 | 41.5815 | –
CCc1nc2ccc(Cl)cn2c1C(=O)NCc1ccc(N2CCC(c3ccc(OC(F)(F)F)cc3)CC2)cc1 [MMV687696] | -3.859 | -6.627 | 83.8288 | –
O=C(c1nc2c(C(F)(F)F)cc(C3CC3)cn2c1Cl)N1CCN([C@H]2CC[C@H](O)CC2)C(=O)C1 [MMV1634396] | 0.0006202 | 0.1204 | 113.417 | –
COc1ccc(NS(=O)(=O)c2ccc(Cl)s2)cn1 [MMV1580499] | 0.09331 | -16.9426 | 78.1001 | –
Clc1cc2nc(C3CCNCC3)n(Cc3ccc(CNCCc4c[nH]cn4)cc3)c2cc1Cl [MMV1580842] | -1.296 | -12.8721 | 102.952 | –
O=C(NCc1ncc(C(F)(F)F)cc1Cl)c1c(Cl)cccc1Cl [MMV689401] | -2.654 | -25.1085 | 22.5442 | –
COc1cc(NC(=O)CN2C(=O)NC(c3ccccc3)(c3ccccc3)C2=O)cc(OC)c1 [MMV1578572] | -1.463 | -23.3736 | 61.4538 | –
CNc1nc(=O)[nH]cc1F [MMV1782388] | -3.006 | -25.8676 | 224.858 | –
CCCCN1C[C@H](O)[C@@H](O)[C@H](O)[C@H]1CO [MMV1782098] | -0.9049 | -0.1991 | 82.1234 | –
CCCCCCC1c2ccc(O)cc2Oc2cc(O)ccc21 [MMV1593535] | 1.318 | -18.7037 | 92.5147 | –
CC[N+]1(C/C2=C/CCCCCC2)CCC(NC(=O)C2c3cc(Cl)ccc3Oc3ccc(Cl)cc32)CC1.[I-] (stereo not drawn) [MMV1580489] | 1.482 | -2.113 | 73.6372 | –
Nc1nc2c(ncn2/C=C2/CC2(CO)CO)c(=O)[nH]1 [MMV1782210] | 0.1371 | -1.147 | 144.056 | –
CC[C@H](CO)NCCN[C@H](CC)CO [MMV687801] | -2.724 | 9.893 | 117.919 | –
FC(F)(F)c1cc(C(F)(F)F)c2ccc3nc(-c4nnco4)cn3c2n1 [MMV690555] | 0.9496 | 0.5886 | 300.676 | –
